Measured values: patent US4990537A, “Anti influenza agent” (priority 1988, dated 1991)

Tests used:
[1] = test system: human influenza virus (A/Fukuoka/80); test: animal or person; type: in vivo, human influenza virus; embryonated chicken eggs; conditions: for IC50: unidentified influenza virus, 48 h, read-out: Concentration for 50% inhibition against proliferation of virus; for activities for inhibiting proliferation of human influenza virus compared with amantadine: in words, versus amantadine
[2] = test system: MDCK cells (dog kidney cells); conditions: for Cytotoxicity (printed in the inhibition rate column): 100.0 μg/ml, plaque assay, three days; for range of safety compared with amantadine: in words, versus amantadine
[3] = test system: human influenza virus A/WSN; test: Inhibitory activities against plaque formation of human influenza virus (plaque assay in MDCK cells); type: cell-based; conditions: for inhibitory activities against growth of human influenza virus compared with amantadine: in words, versus amantadine
[4] = in vitro; conditions: dog, mdck
[5] = unidentified influenza virus, WSN, MDCK, 72 h, read-out: Inhibition rate (%) of plaque formation

Row | Compound | IC50 [1] [µg/mL] | cytotoxicity [2] | Cytotoxicity (printed in the inhibition rate column) [2] | inhibition at 30 µg/mL [3, 5] [%] | activities for inhibiting proliferation of human influenza virus compared with amantadine [1] | range of safety compared with amantadine [2] | inhibitory activities against growth of human influenza virus compared with amantadine [3] | inhibition at 1 µg/mL [3, 5] [%] | inhibition at 2.5 µg/mL [3, 5] [%] | inhibition at 5 µg/mL [3, 5] [%] | inhibition at 10 µg/mL [3, 5] [%] | inhibition at 25 µg/mL [3, 5] [%] | inhibition at 50 µg/mL [3, 5] [%] | MNTC at 72 h [4] [µg/mL] | inhibition at 20 µg/mL [3, 5] [%] | inhibition at 40 µg/mL [3, 5] [%] | inhibition at 100 µg/mL [3, 5] [%]
1 | NC12CC3CC(CC(C3)C1)C2 [Amantadine, amantadine, reference compound] | > 100 | cytotoxicity slightly but distinctly | Cytotoxicity | 60.1 | – | – | – | – | – | – | – | – | – | – | – | – | –
2 | CS(=O)(=O)O.CS(=O)(=O)O.N=C(N)Nc1ccc(C(=O)Oc2ccc3cc(C(=N)N)ccc3c2)cc1 [Compound A, 6-Amidino-2-naphthyl p-guanidinobenzoate dimethanesulfonate] | 0.125 | – | Cytotoxicity | – | stronger activities for inhibiting proliferation of human influenza virus | wide range of safety as compared with amantadine | even stronger inhibitory activities against growth of human influenza virus than amantadine | 19.9 | 27.2 | 52.1 | 100 | 100 | 100 | ≥ 50 | – | – | –
3 | CN(C)C(=O)COC(=O)Cc1ccc(OC(=O)c2ccc(NC(=N)N)cc2)cc1.CS(=O)(=O)O [Compound B, N,N-dimethylcarbamoylmethyl p-(p-guanidinobenzoyloxy)phenylacetate methanesulfonate] | 1.25 | – | – | – | stronger activities for inhibiting proliferation of human influenza virus | wide range of safety as compared with amantadine | even stronger inhibitory activities against growth of human influenza virus than amantadine | – | – | – | 29.5 | – | 88 | ≥ 1000 | 51.5 | 80.5 | 100
